Source: ChEMBL document CHEMBL5325418, “Studies on diketopiperazine and dipeptide analogs as opioid receptor ligands” (Eur J Med Chem, 2023)
The source made the active and inactive calls. No cut-off for these calls is given here. Square brackets hold non-standard residues; d marks the D form. Peptide text beside a SMILES is read from it. * marks the point of attachment. ξ: configuration not given here. ξPhe(3-OMe) = COc1cccc(CC(N)C(=O)O)c1; ξPhe(2-I) = NC(Cc1ccccc1I)C(=O)O; Nphe = O=C(O)CNCc1ccccc1; Boc = CC(C)(C)OC(=O)*

Assays:
[1] = target: Kappa-type opioid receptor (Homo sapiens, UniProt P41145); assay: Displacement of [3H]U69593 from human KOR expressed in HEK cell membranes assessed as inhibition constant incubated for 60 mins by microbeta 2 scintillation counting method; parameters: species or system Cell membrane
Kappa-type opioid receptor, sequence (P41145 whole entry): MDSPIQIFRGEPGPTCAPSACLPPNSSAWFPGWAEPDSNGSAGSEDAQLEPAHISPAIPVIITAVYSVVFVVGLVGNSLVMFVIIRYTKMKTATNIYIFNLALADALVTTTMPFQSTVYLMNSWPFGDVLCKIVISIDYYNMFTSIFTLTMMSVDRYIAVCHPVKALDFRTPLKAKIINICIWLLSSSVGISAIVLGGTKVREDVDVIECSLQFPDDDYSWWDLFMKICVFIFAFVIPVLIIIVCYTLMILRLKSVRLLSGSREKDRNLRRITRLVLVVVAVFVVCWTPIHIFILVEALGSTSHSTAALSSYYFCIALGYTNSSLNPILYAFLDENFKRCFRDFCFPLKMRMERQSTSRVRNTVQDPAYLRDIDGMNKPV

[2] = target: Mu-type opioid receptor (Homo sapiens, UniProt P35372); assay: Displacement of [3H]DAMGO from human MOR expressed in CHO cell membranes assessed as inhibition constant incubated for 60 mins by microbeta 2 scintillation counting method; parameters: species or system Cell membrane
Mu-type opioid receptor, sequence (P35372 whole entry): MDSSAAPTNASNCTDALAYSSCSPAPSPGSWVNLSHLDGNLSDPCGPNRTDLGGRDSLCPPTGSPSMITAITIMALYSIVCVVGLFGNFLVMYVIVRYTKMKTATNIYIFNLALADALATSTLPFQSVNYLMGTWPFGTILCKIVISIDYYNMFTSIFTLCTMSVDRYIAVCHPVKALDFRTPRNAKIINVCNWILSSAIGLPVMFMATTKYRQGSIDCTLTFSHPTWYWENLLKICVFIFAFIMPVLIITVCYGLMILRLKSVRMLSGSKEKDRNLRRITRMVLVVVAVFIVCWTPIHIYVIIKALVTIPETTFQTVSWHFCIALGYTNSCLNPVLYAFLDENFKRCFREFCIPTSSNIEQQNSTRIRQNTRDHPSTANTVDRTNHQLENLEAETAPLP

[3] = target: Delta-type opioid receptor (Homo sapiens, UniProt P41143); assay: Displacement of [3H]DADLE from human DOR expressed in CHO cell membranes assessed as inhibition constant incubated for 60 mins by microbeta 2 scintillation counting method; parameters: species or system Cell membrane
Delta-type opioid receptor, sequence (P41143 whole entry): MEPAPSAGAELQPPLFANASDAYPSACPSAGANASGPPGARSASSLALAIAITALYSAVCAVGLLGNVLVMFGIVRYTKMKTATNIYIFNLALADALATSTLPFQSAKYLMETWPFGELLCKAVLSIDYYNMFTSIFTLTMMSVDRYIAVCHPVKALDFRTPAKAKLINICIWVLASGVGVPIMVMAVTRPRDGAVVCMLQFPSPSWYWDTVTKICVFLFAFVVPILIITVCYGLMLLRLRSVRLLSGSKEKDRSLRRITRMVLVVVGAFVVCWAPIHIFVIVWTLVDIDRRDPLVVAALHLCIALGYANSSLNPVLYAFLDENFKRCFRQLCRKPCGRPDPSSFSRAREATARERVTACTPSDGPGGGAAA

[4] = species on record: Homo sapiens; assay: Selectivity ratio of Ki for displacement of [3H]DAMGO from human MOR expressed in CHO cell membranes to Ki for displacement of [3H]U69593 from human KOR expressed in HEK cell membranes
[5] = species on record: Homo sapiens; assay: Selectivity ratio of Ki for displacement of [3H]DADLE from human DOR expressed in CHO cell membranes to Ki for displacement of [3H]U69593 from human KOR expressed in HEK cell membranes
[6] = Metabolic stability in human plasma assessed as half life at 100 uM measured upto 24 hrs by LC-MS/MS analysis; format: ADME, cell-free; conditions: for t1/2: 24 h, 100 µM
[7] = Metabolic stability in Beagle dog plasma assessed as half life at 100 uM measured upto 24 hrs by LC-MS/MS analysis; format: ADME, cell-free, Canis lupus familiaris; conditions: for t1/2: 24 h, 100 µM
[8] = Metabolic stability in Sprague-Dawley rat plasma assessed as half life at 100 uM measured upto 24 hrs by LC-MS/MS analysis; format: ADME, cell-free
[9] = Metabolic stability in CD-1 mouse plasma assessed as half life at 100 uM measured upto 24 hrs by LC-MS/MS analysis; format: ADME, cell-free
[10] = Metabolic stability in Sprague-Dawley rat liver microsomes assessed as intrinsic clearance at 100 uM measured upto 24 hrs in presence of NADPH by LC-MS/MS analysis; format: ADME, Microsome
[11] = Plasma protein binding in human assessed as bound fraction at 1 uM by LC-MS/MS analysis; format: ADME, cell-free
[12] = Plasma protein binding in dog assessed as bound fraction at 1 uM by LC-MS/MS analysis; format: ADME, cell-free, Canis lupus familiaris
[13] = test system: BEND3; assay: Apparent permeability coefficient of the compound across blood brain barrier in mouse BEND3 cells at 10 ug/ml measured upto 120 mins by LC-MS/MS analysis; format: functional, cell-based; conditions: dose 10.0 µg/ml
[14] = test system: Rattus norvegicus; assay: Effect on emotional-affective response in spinal nerve ligation neuropathic pain rat model assessed as reduction in audible vocalizations at 3 mg/kg, ip measured at 1 hr by preamplifier based analysis; format: functional, organism-based
[15] = test system: Rattus norvegicus; assay: Effect on emotional-affective response in spinal nerve ligation neuropathic pain rat model assessed as reduction in ultrasonic vocalizations at 3 mg/kg, ip measured at 1 hr by preamplifier based analysis; format: functional, organism-based
[16] = Plasma protein binding in rat assessed as bound fraction at 1 uM by LC-MS/MS analysis; format: ADME, cell-free
[17] = Plasma protein binding in mouse assessed as bound fraction at 1 uM by LC-MS/MS analysis; format: ADME, cell-free
[18] = In vivo inhibition of U50488-induced activation of KOR in C57BL/6 mouse assessed as reduction of occupancy on cold plate at 1 mg/kg, ip pre-treated with U50488 followed compound addition measured after 1 hr by TPPT assay (reference value: 67.28 +/- 10.8% ); format: functional
[19] = test system: Rattus norvegicus; assay: Antiallodynic activity against spinal nerve ligation neuropathic pain rat model assessed as reduction in mechanical hypersensitivity at 3 mg/kg, ip measured at 1 hr by von frey test; format: functional, organism-based

Row | Structure (SMILES) | Ki [1] [µM] | Ki [2] [µM] | Ki [3] [µM] | other results
1 | COC(=O)C(Cc1ccccc1I)NC(=O)CN(Cc1ccccc1)C(=O)OC(C)(C)C (stereo not given) (Boc-[Nphe]-[ξPhe(2-I)]-OMe) | 4.18 | 4.38 | > 10 | –
2 | COC(=O)C(Cc1cccc(OC)c1C)NC(=O)CNCc1ccccc1 (stereo not given) | 0.19 | > 10 | > 10 | Ratio Ki [4]: > 53; Ratio Ki [5]: > 53; t1/2 [6]: 2.5282 h; t1/2 [7]: 4.321 h; half-life at 100 µM [8]: < 0.0167 h; half-life at 100 µM [9]: < 0.0167 h; Intrinsic clearance [10]: 1112 µL/min/mg; PPB [11]: 89.36%; PPB [12]: 94.28%; Pe [13]: 6.25 10^-3cm/min
3 | COc1cccc(CC2NC(=O)[C@@H]3CCCN3C2=O)c1I (stereo not given in full) | > 10 | > 10 | > 10 | –
4 | COC(=O)C(Cc1cccc(OC)c1)NC(=O)CN(Cc1ccccc1)C(=O)OC(C)(C)C (stereo not given) (Boc-[Nphe]-[ξPhe(3-OMe)]-OMe) | > 10 | > 10 | > 10 | –
5 | Cn1c(=O)c2c(ncn2C)n(C)c1=O | – | – | – | Pe [13]: 28.1 10^-3cm/min
6 | COc1cccc(CC2NC(=O)CN(C)C2=O)c1I (stereo not given) | > 10 | > 10 | > 10 | –
7 | COC(=O)C(Cc1cccc(OC)c1I)NC(=O)CN (stereo not given) | > 10 | > 10 | > 10 | –
8 | COC(=O)C(Cc1cc(OC)cc(OC)c1I)NC(=O)CNCc1ccccc1 (stereo not given) | > 10 | > 10 | > 10 | –
9 | COC(=O)C(Cc1cccc(OC)c1I)NC(=O)CCCc1ccccc1 (stereo not given) | > 10 | > 10 | > 10 | –
10 | NCC1(CC(=O)O)CCCCC1 | – | – | – | Activity [14]: Active; Activity [15]: Active
11 | COC(=O)C(Cc1cccc(OC)c1I)NC(=O)CNC(C)c1ccccc1 (stereo not given) | 0.765 | > 10 | > 10 | Ratio Ki [4]: > 13; Ratio Ki [5]: > 13
12 | COC(=O)C(Cc1cccc(OC)c1I)NC(=O)CNCCc1ccccc1 (stereo not given) | 0.802 | > 10 | > 10 | Ratio Ki [4]: > 12; Ratio Ki [5]: > 12
13 | COc1cccc(CC2NC(=O)CN(Cc3ccccc3)C2=O)c1I (stereo not given) | 0.924 | > 10 | > 10 | Ratio Ki [4]: > 11; Ratio Ki [5]: > 11; half-life at 100 µM [6]: > 24 h; half-life at 100 µM ([7]; Beagle): > 24 h; half-life at 100 µM [8]: > 24 h; half-life at 100 µM [9]: > 24 h; Intrinsic clearance [10]: 381.8 µL/min/mg; PPB [11]: 91.42%; PPB [12]: 86.15%; PPB [16]: 91.24%; PPB [17]: 85.15%; Pe [13]: 5.07 10^-3cm/min; inhibition in vivo at 1 mg/kg [18]: 10.3%; Activity [19]: Active; Activity [14]: Active; Activity [15]: Active
14 | O=C1OC2(c3ccc(O)cc3Oc3cc(O)ccc32)c2ccccc21 | – | – | – | Pe [13]: 0.95 10^-3cm/min
15 | COc1cccc(CC2NC(=O)CN(CC=C(C)C)C2=O)c1I (stereo not given) | > 10 | > 10 | > 10 | –
16 | COc1cccc(CC2NC(=O)CNC2=O)c1I (stereo not given) | > 10 | > 10 | > 10 | –
17 | COC(=O)C(Cc1cccc(OC)c1I)NC(=O)CNCc1ccccc1 (stereo not given) | 0.277 | > 10 | > 10 | Ratio Ki [4]: > 36; Ratio Ki [5]: > 36; t1/2 [6]: 2.1762 h; t1/2 [7]: 3.6808 h; half-life at 100 µM [8]: < 0.0167 h; half-life at 100 µM [9]: < 0.0167 h; Intrinsic clearance [10]: 1928 µL/min/mg; PPB [11]: 90.8%; PPB [12]: 97.09%; Pe [13]: 8.75 10^-3cm/min
18 | COC(=O)C(Cc1cccc(OC)c1I)NC(=O)CN(C)Cc1ccccc1 (stereo not given) | 0.256 | > 10 | > 10 | Ratio Ki [4]: > 40; Ratio Ki [5]: > 40
19 | CNCC(=O)NC(Cc1cccc(OC)c1I)C(=O)OC (stereo not given) | > 10 | > 10 | > 10 | –
20 | Cc1cccc(CC2NC(=O)CN(Cc3ccccc3)C2=O)c1I (stereo not given) | > 10 | > 10 | > 10 | –
21 | COC(=O)C(Cc1cccc(OC)c1I)NC(=O)CN(Cc1ccccc1)C(=O)OC(C)(C)C (stereo not given) | > 10 | > 10 | > 10 | –
